Results on five molecules are retold here after patent US20100267733A1, “Synergistic Modulation of Microglial Activation by Nicotine and THC” (UNIVERSITY OF SOUTH FLORIDA, priority 2007, published 2010).

Like-named read-outs stand apart in the source and are kept apart here.

One experiment relates to N9 cells. Description: Cannabinoid agonist effects on microglial (N9) activation: TNF-α and NO release. The experiment is classed as cell-based, murine. The following applies: JWH-015 5 μM. Here is the method:
(§1) FIG. 3 is a block graph showing cannabinoid agonist effects on microglial (N9) activation. Cultured microglial cells were incubated with 100 ng/mL LPS (LPS), a combination of IFN-γ (100 U/mL) and CD-40L (2 μg/mL), or a combination of Aβ1-42 (1 μM) and CD-40L (2 μg/mL) and co-treated with JWH-015 (5 μM). Anti-CB2 siRNA was added to cells, abolishing the ability of JWH-015 to reduce LPS-induced cytokine release (n=3, **p<0.05). ELISA analysis of microglial cell release of (A) TNF-α and (B) NO was measured and mean levels per mg of total protein shown.
Cannabinoid receptors are expressed on microglia and regulate microglial function. As such, cannabinoid regulation of CD40 activation of microglial was investigated. N9 cells, transfected for 18 hr with specific murine CB2 targeting siRNA (100 nM), were treated for 4 hr with lipopolysaccharid (LPS), a positive control of microglia activation.

Experiment [1] deals with mouse primary microglial cells. Description: TNF-α secretion by primary microglial cells stimulated with IFN-γ/CD40L or Aβ1-42/CD40L (ELISA). The experiment is classed as cell-based. The following applies: 24 hr, presence of JWH-015. Here is the method:
as §1
To examine the functional consequences of CB2 agonist treatment on CD40 expression, mouse primary microglial cells were stimulated with either IFN-γ/CD40L protein (Polazzi, E., A. Contestabile, Reciprocal interactions between microglia and neurons: from survival to neuropathology. Rev. Neurosci., 2002. 13(3): 221-242; Facchinetti, F., et al., Cannabinoids ablate release of TNFalpha in rat microglial cells stimulated with lypopolysaccharide. Glia, 2003. 41(2): 161-168; Walter, L., et al., Nonpsychotropic cannabinoid receptors regulate microglial cell migration. J. Neurosci. 2003. 23(4):1398-405) or Aβ1-42/CD40L protein in the presence or absence of JWH-015 for 24 hr. […] After 3 hr, the amount of phagocytosed Aβ1-42 peptide was determined by quantitative immunoblotting experiments, seen in FIG. 4. […]
Background: An ELISA detects its analyte on a solid surface through an enzyme-linked reagent.

For experiment [2], the system named is mouse primary microglial cells. Description: Microglial phagocytosis of Aβ1-42 / Cy3-Aβ1-42 with CD40L (phagocytosis assay, quantitative immunoblotting). The experiment is classed as cell-based. How it is done: FIG. 4 is a graph showing CB2 stimulation modulates microglial phagocytic function. Mouse primary microglial cells were seeded at 5×10^5 cells/well and treated with 3 μM Cy3™-Aβ1-42 with CD-40L protein (2.5 μg/mL), JWH-015 (5 μM) or both JWH-015 and CD-40L. Aβ mean band densities are represented as ratios to β-actin+/−SD (n=3 for each condition).
To examine the functional consequences of CB2 agonist treatment on CD40 expression, mouse primary microglial cells were stimulated with either IFN-γ/CD40L protein (Polazzi, E., A. Contestabile, Reciprocal interactions between microglia and neurons: from survival to neuropathology. Rev. Neurosci., 2002. 13(3): 221-242; Facchinetti, F., et al., Cannabinoids ablate release of TNFalpha in rat microglial cells stimulated with lypopolysaccharide. Glia, 2003. 41(2): 161-168; Walter, L., et al., Nonpsychotropic cannabinoid receptors regulate microglial cell migration. J. Neurosci. 2003. 23(4):1398-405) or Aβ1-42/CD40L protein in the presence or absence of JWH-015 for 24 hr. […] The canonical microglial function in the CNS is thought to be phagocytosis, given that IFN-γ and CD40 signaling are maturation agents that oppose this phagocytic function. Murine primary microglial cultures were exposed to 3 μM of Aβ1-42 (for immunoblotting) or Cy3™-Aβ1-42 (for phagocytosis assay) in the presence or absence of CD40L protein or CD40L protein/JWH-015. After 3 hr, the amount of phagocytosed Aβ1-42 peptide was determined by quantitative immunoblotting experiments, seen in FIG. 4. […] CD40 ligation decreased microglial phagocytosis compared to controls, while CB2 agonist treatment alone increased phagocytosis compared to control. The presence of JWH-015 rescued microglial phagocytosis of Cy3-Aβ1-42 following CD40L treatment.

In experiment [3] the test system is primary cultured microglial cells. The experiment is classed as cell-based, murine. How it is done:
Primary cultured microglial cells (1×10^5 cells/well in 24-well tissue-culture plates) were treated with FITC-tagged Aβ1-42 (300 nM, pre-aggregated for 24 h at 37° C. in complete medium for 60 mm in the absence (control) or presence of nicotine ([…]). In addition, in parallel 24-well tissue-culture plates, microglial cells were incubated at […] with the same treatment above. Cell supernatants and lysates were analyzed for (A) extracellular and (B) cell associated FITC-Aβ using a fluorometer.
Concentration-response and time-course functions for microglial phagocytosis (cellular uptake) of Aβ1-42 peptide were then characterized. […] To fully characterize these effects, primary microglial cells cultured in 24-well tissue-culture plates (1×10^5/well) were treated for 0, 15, 30, 60, 120, and 180 mm with “aged” FITC tagged Aβ1-42 peptide at 300 nM in the presence or absence of nicotine (0.1-10 μM), THC (0.01-10 μM), and their combination. The microglia were then administered nicotine (0.1-10 μM), THC (0.01-10 μM) and a combination. In addition, cannabinoid antagonists, AM 251 (CB1) and AM 281 […] (0.01-10 μM), cannabinoid agonists, ACEA (CB1) and JHW 015 (CB2) (0.01-10 μM), and nicotinic receptor antagonists, mecamylamine (α4β2) and α-bungorotoxin (α 7) (0.01-10 μM) were used in challenge experiments to determine receptor specificity. For fluorescence analysis, the cells were then washed 5 times with ice-cold PBS to remove the extracellular Aβ, and fixed in 4% paraformaldehyde. The cells were mounted and viewed under an Olympus IX71/IX51 fluorscence microscope equipped with a digital camera system. Image Pro software was used to quantify fluorescence signals, using a minimum of 5 random fields. For fluorometric analysis, microglial cells were treated in parallel, rinsing the cells 3 times with medium and the cells lysed. Extracellular and cell associated FITC tagged Aβ was quantified using an MFX 96-well microplate fluorometer (Molecular Devices, MDS, Inc., Sunnyvale, Calif.) with an emission wavelength of 538 nm and an excitation wavelength of 485 nm. A standard curve from 0 nM to 500 nM of FITC-tagged Aβ was run for each plate. The total cellular protein of all groups was quantified using the Bio-Rad protein assay. In addition, in parallel 24-well tissue-culture plates, microglial cells was incubated at 4° C. with FITC-conjugated Aβ with or without various combinations of CD40L as controls for non-specifically incorporated Aβ. Microglial cells was then rinsed 3 times in Aβ-free complete medium, and the media was exchanged with fresh Aβ-free complete medium for 10 min both to allow for removal of non-incorporated Aβ and to promote concentration of the Aβ into phagosomes. The mean fluorescence values for each sample at 37° C. and 4° C. at the indicated time points were determined by fluorometic analysis. Relative fold change values were calculated as: (mean fluorescence value for each sample at 37° C./mean fluorescence value for each sample at 4° C.). In this manner, both extracellular and cell associated FITC-labeled Aβ were quantified.
For phagocytosis experiments, an important concern is the possibility of extracellular association of Aβ with microglial cell membrane. To address this issue, microglial cells was rinsed in Aβ-free complete medium, and media was exchanged with fresh Aβ-medium for 10 mm both to allow for removal of non-specifically incorporated Aβ and to promote concentration of the Aβ into phagosomes. Microglial cells were further cultured in parallel 24-well plates incubated at 4° C. with FITC-tagged Aβ at the same time points in the presence or absence of the appropriate treatment as control for non-specifically incorporated Aβ.

For experiment [4], the system named is microglial cells. Description: LPS-induced TNF-α release in cultured microglial cells (ELISA). The experiment is classed as cell-based, murine.
Protocol: Cultured microglial cells were plated in 24-well tissue-culture plates (Costar, Cambridge, Mass.), using minimum essential media supplemented with 5% fetal bovine serum, at […] cells per well. […] After pretreatment the cells were stimulated with LPS (100 ng/mL) for 4 hrs. Cell-free supernatants were collected and stored at −70° C. until analysis. The TNF-α level in the supernatants were examined using ELISA kits (R&D Systems) in strict accordance with the manufacturers' protocols. Cell lysates were also prepared and the Bio-Rad protein assay (Hercules, Calif.) was performed to measure total cellular protein. Results are shown as mean pg of TNF-α per mg of total cellular protein (+1-SEM).
Murine primary culture microglial cells were isolated from newborn mouse cerebral cortices under sterile conditions and kept at 4° C. prior to mechanical dissociation. Cells were plated in 75 cm^2 flasks in RPMI medium supplemented with 5% fetal calf serum, 2 mM glutamine, 100 units/mL penicillin, 0.1 μg/mL streptomycin, and 0.05 mM 2-mercaptoethanol and kept for 14 days so only glial cells remain. The microglial cells were isolated by shaking the flasks at 200 rpm. More than 98% of the glial cells remaining stain positive for membrane attack complex-1 (CD-11b, Roche Diagnostics Corp., Indianapolis, Ind.). Additionally, between 85% and 95% of microglial cells usually stain positive for CD45 by fluorescence activated cell sorter (FACS) analysis.
Cell cultured media was collected for measurement of cytokines by commercial cytokine ELISA kits, as described previously. In parallel, cell lysates were prepared for measurement of total cellular protein. Data was represented as ng/mg total cellular protein for each cytokine production.
Cell cultures were treated with nicotinic/THC treatment, as described above. […] Each cytokine was represented as pg of cytokine/mg of total cellular protein. Data was analyzed using ANOVA with post hoc comparison using Bonferroni's or Dunnett's T3 methods as determined by Levene's test for equality of the variances.
The test system of experiment [5] is microglial cells.
The subject of the next experiment is Tg2576 transgenic mice. Conditions: mouse, in vivo; cited from earlier work.

`CCCn1c(C)c(C(=O)c2cccc3ccccc23)c2ccccc21` [JWH-015]: the “Aβ/CD-40L-induced NO production” value in the experiment on N9 cells (Aβ1-42 1 μM, CD-40L 2 μg/mL, FIG. 3(B)) was “significantly reduced”. Also, the “IFN-γ/CD-40L-induced NO production” value in the experiment on N9 cells (IFN-γ 100 U/mL, CD-40L 2 μg/mL, FIG. 3(B)) was “significantly reduced”. The “LPS-induced TNF-α release” value with N9 cells (N9 cells, LPS 100 ng/mL 4 hr, FIG. 3(A)) was “reductions”. For the same molecule, in experiment [1], the “secretion of TNF-α induced by Aβ1-42/CD40L” value is reported as “significantly reduced” and the “secretion of TNF-α induced by IFN-γ/CD40L” value is reported as “significantly reduced”. Also, the “microglial phagocytosis compared to control” value in experiment [2] (CB2 agonist treatment alone, 3 μM Aβ1-42, 3 hr) is recorded as “increased”. Moreover, in experiment [2] (JWH-015 5 μM with CD40L protein, 3 hr), the “microglial phagocytosis of Cy3-Aβ1-42 following CD40L treatment” value is given as “rescued”. Moreover, the “CD40L-mediated impairment of microglial phagocytosis of Aβ1-42 (band density ratio of Aβ to β-actin)” value in experiment [2] (Western immunoblotting, parallel experiment) is listed as “significant attenuation”. In addition, the “Aβ levels (Aβ band densities compared to β-actin)” value in experiment [2] (quantitative immunoblotting, FIG. 4) is reported as “significantly reduced”.

Take `CCCCCc1cc(O)c2c(c1)OC(C)(C)[C@@H]1CCC(C)=C[C@@H]21` [THC, Δ^9-tetrahydrocannabinol]: in experiment [3] (THC 5 μM), the “cell-associated FITC-Aβ1-42” value is on record as “increasing” and the “extracellular FITC-Aβ1-42 remaining in the supernatant” value is “markedly decreased”. Further, the “receptor mediating the effect on microglial phagocytosis of Aβ” value in experiment [3] (challenge experiments with receptor antagonists/agonists) was “cannabinoid CB2 receptors”.

`CNC1(C)C2CCC(C2)C1(C)C` (centres unmarked) [mecamylamine]: the “prevention of the ACh and nicotine inhibition of LPS-induced TNF-α release” value in the experiment on microglial cells [4] is “prevented”.

As for `CN1CCCC1c1cccnc1` (centres unmarked) [nicotine], in the experiment on microglial cells [5], the “microglial-released IL-1β” value is listed as “effectively suppress”, the “microglial-released IL-6” value is on record as “effectively suppress” and the “microglial-released TNF-α” value is listed as “effectively suppress”. Besides, the “reduction in insoluble Aβ1-40 and Aβ1-42 peptides” value in the experiment on Tg2576 transgenic mice was around 80%. Further, in experiment [3], the “cell-associated FITC-Aβ1-42” value is given as “increasing”, the “extracellular FITC-Aβ1-42 remaining in the supernatant” value is listed as “markedly decreased”, the “microglial phagocytosis of Aβ1-42 peptide” value is given as “enhanced” and the “receptor mediating the effect on microglial phagocytosis of Aβ” value is given as “α7 nicotinic receptors”. In addition, the “LPS-induced TNF-α release” value with microglial cells [4] was “inhibited”.

Turning to α-bungarotoxin, the “prevention of the ACh and nicotine inhibition of LPS-induced TNF-α release” value in the experiment on microglial cells [4] was “prevented”.
